# Patent publication US20230212129A1, “QUINAZOLINE DERIVATIVES USEFUL AS SELECTIVE HDAC6 INHIBITORS” (AnnJi Pharmaceutical Co., Ltd., priority 2020, published 2023)
# Tests used:
# HDAC1 = molecular target: T1, HDAC1 (Homo sapiens, UniProt Q13547); experiment: HDAC1 activity, acetylated-AMC-labeled peptide substrate; assay type: biochemical
# T1 construct: GST (C); host or cells: baculovirus expression system, Sf9 insect cells (SP9 [sic])
# Method: The activities of HDAC 1 and 6 were measured by using an acetylated-AMC-labeled peptide substrate, a fluorogenic peptide from p53 residues 379-382 (RHIKKAc). The proteins involved in the assay are as the followings (1) Human HIDAC1 (Genflank Accession No. NM_004964): Full length with C-terminal GST tag, MW=79.9 kDa, expressed by baculovirus expression system in SP9 cells; and (2) Human HIDAC6 (Genflank Accession No. BC069243): Full length with N-terminal GST tag, MW=159 kDa, expressed by baculovirus expression system in Sf9 cells.
# [1] = test system: dorsal root ganglion (DRG) cells; experiment: DRG neurite outgrowth after paclitaxel-induced damage; assay type: cell-based, C57BL/6J mice; conditions: 0.1 μM and 1 μM, 24 hours prior to 24-hour 0.1 μM paclitaxel; FIG. 1
# Method: To investigate the effect of HDAC6 inhibitors in neuron protection and neuron regeneration, the recovery of dorsal root ganglion (DRG) cells post-paclitaxel injury was tested. Dorsal root ganglion was extracted from 7 week-old female C57BL/6J mice and incubated with HDAC6 inhibitors (compounds COMPOUND 33, COMPOUND 34, or COMPOUND 2) at the concentrations of 0.1 μM and 1 μM, or 100 ng/ml of BDNF, a neuronal growth factor (positive control), for 24 hours prior to a 24-hour incubation of 0.1 μM paclitaxel.
# The neurite was stained by pIII-tubulin.
# [2] = test system: cisplatin-induced neuropathy; experiment: Cisplatin-induced neuropathy, von Frey paw-withdrawal murine model; assay type: in vivo, Balb/c mice; conditions: oral once daily Day 16 to 29 (pregabalin 15 mg/kg one hour prior to test); vs cisplatin control; FIG. 4
# Method: To understand whether COMPOUND 2 exerts neuron protective activities in cisplatin-induced neuropathy, a paw-withdrawal murine model is deployed. The 50% paw withdrawal threshold (PWT) to a static mechanical stimulus was assessed using von Frey filament and up-and-down method following the procedure described by Chaplan (1994). Mechanical allodynia, a painful sensation caused by innocuous stimuli like light touch, was assessed by the manual von Frey test once per week (on day 7, 14, 21, 28, […], and 42). The animals indicated sensation by pulling back its paw. The minimum force leading to withdrawal of the paw was regarded as the reflex threshold.
# Balb/c mice weighing about 25±2 gram were given cisplatin intraperitoneally at the dose of 1.5 mg/kg for 5 consecutive days (cumulative dose of 7.5 mg/kg), followed by 5 days of recovery. The cisplatin administration cycle was repeated once more to reach a cumulative dose of 15 mg/kg to induce neuropathy. Test compounds, COMPOUND 2 and ACY1215, were orally administered once daily for 2 weeks (except for the weekends) from Day 16 to 29. Pregabalin, a drug known to provide transient pain relief, was administered at a dose of 15 mg/kg prior to each von Frey stimulus test to serve as the positive control.
# [3] = test system: bleomycin-induced pulmonary fibrosis; experiment: Bleomycin-induced pulmonary fibrosis model, lung histology (H&E); assay type: in vivo, mice
# Method: The activities of compounds COMPOUND 2 and COMPOUND 33 in preventing and/or treating pulmonary fibrosis were examined using a bleomycin-induced pulmonary fibrosis model, a model that involves deactivated bleomycin hydrolase, elevated oxidative stress, and increased inflammatory cytokines. In the prevention model, mice were administered bleomycin intratracheally an hour in prior to the first oral administration of 30 mg/kg testing compounds. The treatment continued for 21 consecutive days, and mice were sacrificed to examine histological changes of lung tissues were analyzed by H&E staining to evaluate the degree of lung fibrosis. Additionally, the HDAC6 inhibitors, COMPOUND 2 and COMPOUND 33, were tested for their effect in aiding animal recovery from lung injury and pulmonary fibrosis post injury.
# [4] = test system: paclitaxel-induced peripheral neuropathy; experiment: Paclitaxel-induced peripheral neuropathy, Von Frey test; assay type: in vivo, Sprague-Dawley (SD) rats
# Method: Male Sprague-Dawley (SD) rats, weighing 320±30 grams, were given paclitaxel intraperitoneally at the dose of 6 mg/kg for 5 consecutive days with a total cumulative dose of 30 mg/kg to induce chemotherapy-induced peripheral neuropathy.
# Compound 2 or vehicle was administered orally once daily for 2 weeks during the weekdays (Days 8 to 12 and 15-19). Mechanical allodynia is assessed by the manual Von Frey test once per week. The animals are given 20 to 30 minutes to acclimatize prior to the testing. The paw is pressed with a series of 8 manual Von Frey monofilaments with logarithmically incremental stiffness [3.61 (0.4 g), 3.84 (0.6 g), 4.08 (1.0 g), 4.31 (2.0 g), 4.56 (4.0 g), 4.93 (8.0 g), 5.18 (15.0 g) and (26.0 g)]. The manual Von Frey monofilament was applied perpendicularly from underneath the mesh floor to the central plantar surface with sufficient force to cause a slight buckling against the paw, and held for approximately 6-8 seconds. A positive response was noted if the paw is sharply withdrawn; ambulation is considered an ambiguous response, and in such cases, the stimulus is reapplied. The 50% paw withdrawal threshold (PWT) to a static mechanical stimulus was assessed using Von Frey filament and up-and-down method.
# Von Frey data were presented as mean±SEM (Standard Error of the Mean). Treatment groups were compared to the paclitaxel control using Student's T-test. A p value <0.05 is considered to represent a significant difference.
# T1 sequence (Q13547 whole entry): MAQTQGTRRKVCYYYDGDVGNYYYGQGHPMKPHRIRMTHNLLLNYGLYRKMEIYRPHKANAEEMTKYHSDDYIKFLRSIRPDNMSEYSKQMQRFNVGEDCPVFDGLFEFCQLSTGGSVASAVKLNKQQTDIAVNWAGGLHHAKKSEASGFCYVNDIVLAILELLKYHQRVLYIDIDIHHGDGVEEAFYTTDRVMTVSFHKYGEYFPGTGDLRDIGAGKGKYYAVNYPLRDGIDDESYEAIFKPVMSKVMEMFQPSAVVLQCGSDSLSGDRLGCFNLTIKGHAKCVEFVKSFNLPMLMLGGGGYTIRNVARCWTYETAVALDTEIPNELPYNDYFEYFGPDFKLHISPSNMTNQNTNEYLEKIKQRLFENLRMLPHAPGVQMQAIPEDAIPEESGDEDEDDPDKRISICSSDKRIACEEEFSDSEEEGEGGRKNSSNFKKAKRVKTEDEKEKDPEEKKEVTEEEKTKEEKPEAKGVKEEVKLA
smiles,measurement,setting,value
"CCc1nc2cc(F)c(/C=C/C(=O)NO)cc2c(=O)n1-c1c(C)cccc1C [Compound 2, (E)-3-(3-(2,6-dimethylphenyl)-2-ethyl-7-fluoro-4-oxo-3,4-dihydroquinazolin-6-yl)-N-hydroxyacrylamide]",IC50,HDAC1,5.17 µM
same,neurite outgrowth,[1],significantly rescued the neurite outgrowth
same,mean withdrawal threshold (50% PWT),[2],significantly increased the mean withdrawal threshold
same,development of lung fibrosis,"[3]; prevention model, 30 mg/kg oral, 21 consecutive days, FIG. 5",markedly decreased the development of lung fibrosis
same,recovery from lung injury and pulmonary fibrosis post injury,[3]; treatment post injury,protective effect in pulmonary inflammatory response and pulmonary fibrosis
same,duration of effect after the dosing was stopped,[4]; 15 and 30 mg/kg,≥ 14 days
same,sensitivity to the mechanical stimulation,"[4]; 15 and 30 mg/kg, starting from study Day 14",significantly reduced the sensitivity
same,pain-relief after dosing was stopped,[4]; FIG. 7,maintained for at least two weeks after dosing was stopped
same,threshold of mean withdrawal force,"[4]; vs vehicle, from study Day 14, oral once daily Days 8 to 12 and 15-19",significant increase in the threshold of mean withdrawal force
